This is an account of results in patent US20260207618A1, “PYRIMIDINE CARBOXAMIDE COMPOUNDS” (Acrivon Therapeutics, Inc., priority 2022, published 2026).

Assay [1] deals with T1, recombinant human Wee1A kinase (Homo sapiens, UniProt P30291).
T1 construct: full length Wee1A kinase was expressed by baculovirus in insect cells; purchased Invitrogen PV3817; host or cells: insect cells (baculovirus)
Description: LanthaScreen Europium (Eu) Kinase Binding Assay, Wee1A kinase (TR-FRET tracer displacement). Conditions: 30 nM tracer 178, 5 nM Wee1A kinase, 60 minutes at room temperature.

Assay [2] has as its system Cdk1 phosphorylated on tyrosine 15. Description: High-content imaging of pCdk1 Y15 by immunofluorescence in ACHN cells. The format is cell-based. The following applies: Homo sapiens, high-content imaging (IF), 4 h, 7 to 5000 nM, read-out: CDK1 Tyr15 Phosphorylation EC50 (IC50). In outline: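 ACHN cells were treated with compounds at 7–5000 nM for 4 h, then fixed, permeabilised and immunostained for pCDK1 Y15, with DAPI as nuclear counterstain. Automated imaging gave the percentage of cells with nuclear pCDK1 Y15 positivity relative to DMSO control. EC50 values came from dose-response curves.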

The next assay relates to ACHN cells. Description: Cell Titer Glo viability assay in ACHN cells. The assay is classed as cell-based. The following applies: Homo sapiens, 144 h, 0.17 to 10,000 nM. How it is done: (§1) ACHN renal cell carcinoma cell line (ATCC) was cultured in Minimum Essential Medium Eagle supplemented with 10% fetal calf serum (Sigma), 1% Penicillin-Streptomycin and 10 mM HEPES buffer (HyClone). Cell cultures were kept in a humidified incubator at 37° C. and 5% CO2. Cells were routinely tested for Mycoplasma contamination.
ACHN cells were seeded at a density of 400 cells per well in tissue culture treated 384 well plates (Corning Costar). After overnight incubation, cells were treated with drugs at concentrations ranging from 0.17 to 10,000 nM. Viability compared to untreated control was assessed at 144 h using Cell Titer Glo assay 2.0 (Promega).

In assay [3] the test system is Cdk1 phosphorylated on tyrosine 15. Description: pCDK1 Y15 AlphaLISA target engagement assay in ACHN cells. The assay is classed as cell-based. The following applies: Homo sapiens, treated for 4 h, 7 to 5000 nM, read-out: TE Weel (ALISA): AlphaLISA CDK1 Tyr15 Phosphorylation EC50. How it is done:
as §1
For target engagement assessment, quantification of Cdk1 phosphorylated on tyrosine 15 was detected using pCDK1 Y^15 AlphaLISA assay (Perkin Elmer). ACHN cells were seeded into tissue culture treated 96-well plates (VWR) to a density of 20,000 cells per well. 24 h post seeding cells were treated for 4 h with compounds at concentrations ranging from 7 to 5000 nM. Cells were washed with PBS and lysed in 50 μl alphaLISA lysis buffer before freezing at −80° C. 10 μl of the lysate was transferred to 384 well plates and incubated with alphaLISA donor and acceptor beads according to the manufacturer's instructions. Dose response curves and EC50 values were calculated and visualized using GraphPad Prism version 9.

T1 sequence (P30291 whole entry): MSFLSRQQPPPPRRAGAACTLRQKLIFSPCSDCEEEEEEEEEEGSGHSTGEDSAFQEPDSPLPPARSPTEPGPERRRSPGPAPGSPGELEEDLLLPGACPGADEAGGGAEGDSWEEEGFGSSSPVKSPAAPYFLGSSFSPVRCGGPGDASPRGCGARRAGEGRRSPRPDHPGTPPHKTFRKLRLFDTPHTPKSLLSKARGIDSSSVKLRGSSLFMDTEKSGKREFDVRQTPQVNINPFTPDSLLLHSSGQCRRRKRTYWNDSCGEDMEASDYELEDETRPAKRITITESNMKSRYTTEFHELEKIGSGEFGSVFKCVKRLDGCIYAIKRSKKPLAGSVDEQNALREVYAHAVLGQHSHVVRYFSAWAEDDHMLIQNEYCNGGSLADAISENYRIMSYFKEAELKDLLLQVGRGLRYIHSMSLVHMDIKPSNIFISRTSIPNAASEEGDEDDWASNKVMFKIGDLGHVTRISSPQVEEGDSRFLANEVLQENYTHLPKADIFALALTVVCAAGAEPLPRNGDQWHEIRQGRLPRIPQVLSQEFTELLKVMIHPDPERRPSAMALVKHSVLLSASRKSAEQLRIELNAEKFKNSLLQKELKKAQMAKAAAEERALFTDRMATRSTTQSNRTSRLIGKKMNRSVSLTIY

One may read the IC50 as the concentration that inhibits the measured activity by half. Broadly, the EC50 is the concentration that produces a half-maximal response. As to `COc1nc(Nc2ccc(C3CCN(C)CC3)c(C)c2)ncc1C(=O)Nc1c(Cl)ccc(O)c1C` [Compound 141, N-(6-chloro-3-hydroxy-2-methylphenyl)-4-methoxy-2-((3-methyl-4-(1-methylpiperidin-4-yl)phenyl)amino)pyrimidine-5-carboxamide], in assay [1], the IC50 was ≤ 10 nM. The figures for the concentration for a half-maximal effect (EC50) (in assay [2]; with ACHN cells) were ≤ 100 nM and ≤ 250 nM, respectively.

With `COc1nc(Nc2ccc(C3CCNCC3)c(C)c2)ncc1C(=O)Nc1c(Cl)cccc1Cl` [Compound 175], the IC50 in assay [1] was ≤ 10 nM. Moreover, the EC50 was ≤ 500 nM in assay [3], ≤ 100 nM in assay [2] and ≤ 250 nM in the assay on ACHN cells.

As to `COc1nc(Nc2ccc(C3CCN(C)CC3)c(C)c2)ncc1C(=O)Nc1c(Cl)cccc1Cl` [Compound 100, N-(2,6-dichlorophenyl)-4-methoxy-2-((3-methyl-4-(1-methylpiperidin-4-yl)phenyl)amino)pyrimidine-5-carboxamide], the IC50 in assay [1] was ≤ 10 nM. In addition, the EC50 in assay [2] was ≤ 100 nM; in the assay with ACHN cells, 250 to 1000 nM.

Regarding `COc1nc(Nc2ccc([C@H]3CCNC3)c(C)c2)ncc1C(=O)Nc1c(Cl)cccc1Br` (single isomer, unassigned) [Compound 194], the IC50 in assay [1] was ≤ 10 nM. Further, the concentration giving a half-maximal response (EC50) in assay [2] lay within 100 to 500 nM; in the assay with ACHN cells, 250 to 1000 nM.

As to `COc1nc(Nc2ccc(C3CCN(C)CC3)c(C)c2)ncc1C(=O)Nc1c(Cl)cccc1C(F)(F)F` [Compound 122, N-(2-chloro-6-(trifluoromethyl)phenyl)-4-methoxy-2-((3-methyl-4-(1-methylpiperidin-4-yl)phenyl)amino)pyrimidine-5-carboxamide], the IC50 in assay [1] is ≤ 10 nM. Also, the EC50 in assay [2] lay within 100 to 500 nM; in the assay with ACHN cells, 250 to 1000 nM.

Take `COc1nc(Nc2ccc(C3CCN(C)CC3)c(C)c2)ncc1C(=O)Nc1c(Cl)ccc(O)c1Cl` [Compound 133, N-(2,6-dichloro-3-hydroxyphenyl)-4-methoxy-2-((3-methyl-4-(1-methylpiperidin-4-yl)phenyl)amino)pyrimidine-5-carboxamide]: the IC50 in assay [1] is ≤ 10 nM. Moreover, the figures for the EC50 (in assay [2]; with ACHN cells) were ≤ 100 nM and ≤ 250 nM, respectively.

`COc1nc(Nc2ccc(C3CCN(C)CC3)c(C#N)c2)ncc1C(=O)Nc1c(Cl)cccc1Cl` [Compound 156, 2-((3-cyano-4-(1-methylpiperidin-4-yl)phenyl)amino)-N-(2,6-dichlorophenyl)-4-methoxypyrimidine-5-carboxamide]: the IC50 in assay [1] was ≤ 10 nM. In addition, in assay [3], the EC50 is 500 to 1000 nM.

For `COc1nc(Nc2ccc(O[C@H]3CCN(C)C3)c(C)c2)ncc1C(=O)Nc1c(Cl)ccc(O)c1C` [Compound 155, (S)—N-(6-chloro-3-hydroxy-2-methylphenyl)-4-methoxy-2-((3-methyl-4-((1-methylpyrrolidin-3-yl)oxy)phenyl)amino)pyrimidine-5-carboxamide], in assay [1], the IC50 was ≤ 10 nM. Besides, in assay [3], the EC50 is ≤ 500 nM.

Consider `COc1nc(Nc2ccc(OCCCN(C)C)c(C)c2)ncc1C(=O)Nc1c(Cl)ccc(O)c1C` [Compound 158, N-(6-chloro-3-hydroxy-2-methylphenyl)-2-((4-(3-(dimethylamino)propoxy)-3-methylphenyl)amino)-4-methoxypyrimidine-5-carboxamide], for which the IC50 in assay [1] was ≤ 10 nM. Besides, the EC50 was 100 to 500 nM in assay [2] and 250 to 1000 nM in the assay on ACHN cells.

Regarding `COc1nc(Nc2ccc3c(c2)CN(C)CC3)ncc1C(=O)Nc1c(Cl)cccc1Cl` [Compound 116, N-(2,6-dichlorophenyl)-4-methoxy-2-((2-methyl-1,2,3,4-tetrahydroisoquinolin-7-yl)amino)pyrimidine-5-carboxamide], the IC50 in assay [1] was ≤ 10 nM. Moreover, the EC50 in assay [2] was ≤ 100 nM; with ACHN cells, 250 to 1000 nM.

Regarding `C#Cc1cccc(Cl)c1NC(=O)c1cnc(Nc2ccc(C3CCN(C)CC3)c(C)c2)nc1OC` [Compound 129, N-(2-chloro-6-ethynylphenyl)-4-methoxy-2-((3-methyl-4-(1-methylpiperidin-4-yl)phenyl)amino)pyrimidine-5-carboxamide], in assay [1], the half-maximal inhibitory concentration (IC50) was ≤ 10 nM. The EC50 in assay [2] is ≤ 100 nM; in the assay with ACHN cells, 250 to 1000 nM.

As for `Cc1cc(Nc2ncc(C(=O)Nc3c(Cl)cccc3Cl)c(OC3CC3)n2)ccc1C1CCN(C)CC1` [Compound 140, 4-cyclopropoxy-N-(2,6-dichlorophenyl)-2-((3-methyl-4-(1-methylpiperidin-4-yl)phenyl)amino)pyrimidine-5-carboxamide], in assay [1], the IC50 was ≤ 10 nM. Besides, the EC50 was 100 to 500 nM in assay [2] and ≤ 250 nM with ACHN cells.

Turning to `COc1nc(Nc2ccc(N3CCC(N(C)C)CC3)c(C)c2)ncc1C(=O)Nc1c(Cl)cccc1Br` [Compound 213], in assay [1], the IC50 was ≤ 10 nM. Also, the concentration for a half-maximal effect (EC50) in assay [2] is 100 to 500 nM; in the assay on ACHN cells, ≤ 250 nM.

Turning to `COc1nc(Nc2ccc(O[C@H]3CCN(C)C3)c(C)c2)ncc1C(=O)Nc1c(Cl)cccc1Cl` [Compound 154, (S)—N-(2,6-dichlorophenyl)-4-methoxy-2-((3-methyl-4-((1-methylpyrrolidin-3-yl)oxy)phenyl)amino)pyrimidine-5-carboxamide], in assay [1], the IC50 was ≤ 10 nM. The values for the EC50 in assay [3] and in assay [2] were > 2500 nM and 100 to 500 nM, respectively.

In the case of `COc1nc(Nc2ccc(OC3CCNCC3)c(C)c2)ncc1C(=O)Nc1c(Cl)cccc1Cl` [Compound 180], in assay [1], the IC50 was ≤ 10 nM. For the same compound, the EC50 in assay [3] lay in the range of 500 to 1000 nM; in assay [2] it was 100 to 500 nM; with ACHN cells it was 250 to 1000 nM.

Consider `COc1nc(Nc2ccc(N3CCCNCC3)c(C)c2)ncc1C(=O)Nc1c(Cl)cccc1Br` [Compound 205], for which the IC50 in assay [1] is ≤ 10 nM. For the same compound, the EC50 in assay [2] is 100 to 500 nM; in the assay on ACHN cells it was ≤ 250 nM.

As to `COc1nc(Nc2ccc3c(cnn3C)c2)ncc1C(=O)Nc1c(Cl)cccc1Cl` [Compound 176], the IC50 in assay [1] lay within 10 to 100 nM. The EC50 in assay [3] was > 2500 nM.

Turning to `COc1nc(Nc2ccc3c(c2)CN(C)CC3(C)C)ncc1C(=O)Nc1c(Cl)cccc1Cl` [Compound 135, N-(2,6-dichlorophenyl)-4-methoxy-2-((2,4,4-trimethyl-1,2,3,4-tetrahydroisoquinolin-7-yl)amino)pyrimidine-5-carboxamide], the 50% inhibitory concentration (IC50) in assay [1] was ≤ 10 nM. The figures for the EC50 (in assay [2]; with ACHN cells) were ≤ 100 nM and 250 to 1000 nM, respectively.

For `COc1nc(Nc2ccc(C3CCN(C)CC3)c(C)c2)ncc1C(=O)Nc1cc(N)ccc1C` [Compound 171], the IC50 in assay [1] was in the range of 10 to 100 nM. In assay [3], the EC50 was > 2500 nM.

Consider `COc1nc(Nc2cnn(C3CCN(C)CC3)c2)ncc1C(=O)Nc1c(Br)cccc1Br` [Compound 212, N-2,6-dibromophenyl-4-methoxy-2-[1-(1-methyl-4-piperidyl)-4-pyrazolylamino]-5-pyrimidinecarboxamide], for which the IC50 in assay [1] was ≤ 10 nM. In addition, the figures for the concentration for a half-maximal effect (EC50) (in assay [2]; with ACHN cells) were 100 to 500 nM and ≤ 250 nM, respectively.

Consider `COc1nc(Nc2ccc(C3(C#N)CCN(C)CC3)c(C)c2)ncc1C(=O)Nc1c(Cl)cccc1Cl` [Compound 181], for which the IC50 in assay [1] was ≤ 10 nM. Moreover, the EC50 in assay [3] is ≤ 500 nM.

Consider `COc1nc(Nc2ccc(C3CCN(C)CC3)c(C)c2)ncc1C(=O)Nc1c(Cl)cccc1Br` [Compound 110, N-(2-bromo-6-chlorophenyl)-4-methoxy-2-((3-methyl-4-(1-methylpiperidin-4-yl)phenyl)amino)pyrimidine-5-carboxamide], for which the IC50 in assay [1] was ≤ 10 nM. Further, the EC50 in assay [2] was ≤ 100 nM; in the assay on ACHN cells, ≤ 250 nM.

As to `COc1nc(Nc2ccc3c(cnn3C3CCN(C)C3)c2)ncc1C(=O)Nc1c(Cl)cccc1Cl` (stereo not drawn) [Compound 173], the IC50 in assay [1] is 10 to 100 nM. Moreover, in assay [3], the EC50 is > 2500 nM.

As to `COc1nc(Nc2ccc([C@@H]3CCNC3)c(C)c2)ncc1C(=O)Nc1c(Cl)cccc1Br` (single isomer, unassigned) [Compound 195], the half-maximal inhibitory concentration (IC50) in assay [1] was ≤ 10 nM. Besides, the EC50 in assay [2] is 100 to 500 nM; with ACHN cells it was 250 to 1000 nM.

`COc1nc(Nc2ccc([C@@H]3CCCN(C)C3)c(C)c2)ncc1C(=O)Nc1c(Cl)cccc1Br` (single isomer, unassigned) [Compound 197]: in assay [1], the IC50 is ≤ 10 nM. Moreover, the EC50 in assay [2] was 100 to 500 nM; in the assay with ACHN cells, ≤ 250 nM.

On to `COc1nc(Nc2ccc3c(cnn3CCN(C)C)c2)ncc1C(=O)Nc1c(Cl)cccc1Cl` [Compound 174], for which the IC50 in assay [1] was ≤ 10 nM. In addition, the concentration for a half-maximal effect (EC50) in assay [3] was > 2500 nM.

With `COc1nc(Nc2ccc(O[C@H]3CCNC3)c(C)c2)ncc1C(=O)Nc1c(Cl)cccc1Cl` [Compound 177], in assay [1], the IC50 is ≤ 10 nM. Besides, in assay [3], the EC50 was > 2500 nM.
